Results as given in patent publication US6251899A, “Methoximinomethyloxadiazines” (Bayer Aktiengesellschaft, priority 1997, dated 2001).
Read-outs that look alike come from different tables or passages of the source.

Tests used:
[1] = logP by HPLC (EEC Directive 79/831 Annex V. A8, gradient method, acetonitrile/0.1% aqueous phosphoric acid); assay type: physicochemical
Description: *The logP values were determined in accordance with EEC Directive 79/831
Annex V. A8 by HPLC (gradient method, acetonitrile/0.1% aqueous phosphoric

Venturia inaequalis = test: Venturia test (apple)/protective; settings: 288 h
Description: Solvent: 47 parts by weight of acetone
(§1) Emulsifier: 3 parts by weight of alkylaryl polyglycol ether
After the spray coating has dried on, the plants are inoculated with aqueous conidia suspension of the causative organism of apple scab Venturia inaequalis and then remain in an incubation cabin at approximately 20° C. and 100% relative atmospheric humidity for 1 day.
The plants are then placed in a greenhouse at approximately 21° C. and a relative atmospheric humidity of approximately 90%.
Evaluation is carried out 12 days after the inoculation.

Plasmopara viticola = test: Plasmopara test (grapevine)/protective; settings: 144 h
Description: Solvent: 47 parts by weight of acetone
as §1
After the spray coating has dried on, the plants are inoculated with an aqueous spore suspension of Plasmopara viticola and then remain in an incubation cabin at approximately 20° C. and 100% relative atmospheric humidity for 1 day. The plants are subsequently placed in a greenhouse at approximately 21° C. and approximately 90% relative atmospheric humidity for 5 days. The plants are then moistened and placed in an incubation cabin for 1 day.
Evaluation is carried out 6 days after the inoculation.

[2] = read-out: Efficacy, apple, protective, 10 g/ha, 12 days after inoculation
[3] = read-out: Efficacy, grapevine, protective, 100 g/ha, 6 days after inoculation

Row | SMILES | chromatographic logP [1] | pest or weed control at 10 g/ha (Venturia inaequalis; [2]) [%] | pest or weed control at 100 g/ha (Plasmopara viticola; [3]) [%] | also measured
1 | CON=C1C(=NOCCOS(C)(=O)=O)Oc2ccccc21 [VI-1, benzofuran-2,3-dione 2-[O-(2-methylsulphonyloxy-ethyl)-oxime]3-(O-methyl-oxime)] | 2.39 |  |  | 
2 | CON=C(C1=NOCCN1)c1ccccc1Oc1ncnc(Oc2cccc(C)c2Cl)c1F [Example 59] | 3.34 | ≥ 90 | ≥ 90 | 
3 | CON=C(C1=NOCCN1)c1ccccc1Oc1ncnc(Oc2ccccc2C#N)c1F [Example 29] | 2.56 |  |  | 
4 | CON=C(C1=NOCCN1)c1ccccc1Oc1ncnc(OCc2cccc(Cl)c2)c1F [Example 46] | 3.44 |  |  | 
5 | CON=C(C1=NOCCN1)c1ccccc1Oc1ncnc(Oc2cc(C)ccc2C)c1F [Example 16] | 3.35 |  |  | 
6 | CON=C(C1=NOCCN1)c1ccccc1Oc1ncnc(Oc2ccccc2Cl)c1F [Example 3] | 3.02 | ≥ 90 | ≥ 90 | pest or weed control at 10 g/ha (Venturia inaequalis; read-out: Efficacy): 92%
7 | CON=C(C1=NOCCN1)c1ccccc1Oc1ncnc(Oc2ccc(OC(F)(F)F)cc2)c1F [Example 25] | 3.54 |  |  | 
8 | CON=C(C1=NOCCN1)c1ccccc1Oc1ncnc(Oc2cccc(Cl)c2)c1F [Example 5] | 3.23 | ≥ 90 | ≥ 90 | pest or weed control at 10 g/ha (Venturia inaequalis; read-out: Efficacy): 99%; pest or weed control at 100 g/ha (Plasmopara viticola; read-out: Efficacy): 97%
9 | CON=C(C1=NOCCN1)c1ccccc1Oc1ncnc(Oc2ccccc2C)c1F [Example 8] | 3.01 |  |  | 
10 | CON=C(C1=NOCCN1)c1ccccc1Oc1ncnc(Oc2ccc(OC(F)(F)F)cc2C)c1F [Example 30] | 3.8 |  |  | 
11 | CON=C(C1=NOCCN1)c1ccccc1Oc1ncnc(Oc2cccnc2)c1F [Example 37] | 1.73 |  |  | 
12 | CON=C(C1=NOCCN1)c1ccccc1Oc1ncnc(OCc2ccccc2Cl)c1F [Example 45] | 2.8 |  |  | 
13 | CON=C(C1=NOCCN1)c1ccccc1Oc1ncnc(Sc2cccc(Cl)c2)c1F [Example 53] | 3.56 |  | ≥ 90 | 
14 | CON=C(C1=NOCCN1)c1ccccc1Oc1ncnc(Oc2cccc3c2OC(C)(C)C3)c1F [Example 31] | 3.3 | ≥ 90 |  | 
15 | CON=C(C1=NOCCN1)c1ccccc1Oc1ncnc(Sc2ccc(Cl)c(C(F)(F)F)c2Cl)c1F [Example 55] | 4.3 |  |  | 
16 | COCc1ccccc1Oc1ncnc(Oc2ccccc2C(=NOC)C2=NOCCN2)c1F [Example 61] | 2.74 |  |  | 
17 | CON=C(C1=NOCCN1)c1ccccc1Oc1ncnc(Oc2ccccc2SC)c1F [Example 63] | 2.95 |  |  | 
18 | CON=C(C1=NOCCN1)c1ccccc1Oc1ncnc(Oc2cccc(OC)c2)c1F [Example 23] | 2.8 | ≥ 90 |  | 
19 | CON=C(C1=NOCCN1)c1ccccc1Oc1ncnc(Oc2cccc(C(C)(C)C)c2)c1F [Example 12] | 3.96 | ≥ 90 |  | 
20 | CON=C(C1=NOCCN1)c1ccccc1Oc1ncnc(Oc2ccc(C(F)(F)F)cc2Cl)c1F [Example 26] | 3.76 |  |  | 

Row | SMILES | chromatographic logP [1] | pest or weed control at 10 g/ha (Venturia inaequalis; [2]) [%] | pest or weed control at 100 g/ha (Plasmopara viticola; [3]) [%] | also measured
21 | CON=C(C1=NOCCN1)c1ccccc1Oc1ncnc(Oc2ccccc2C(C)(C)C)c1F [Example 22] | 3.84 | ≥ 90 |  | 
22 | CON=C(C1=NOCCN1)c1ccccc1Oc1ncnc(Sc2cccc(Br)c2)c1F [Example 52] | 3.66 |  |  | 
23 | CON=C(C1=NOCCN1)c1ccccc1Oc1ncnc(SC2CCCCC2)c1F [Example 57] | 4.01 |  |  | 
24 | CON=C(C1=NOCCN1)c1ccccc1Oc1ncnc(Oc2ccc(OC(F)(F)F)cc2Cl)c1F [Example 27] | 3.86 |  |  | 
25 | CON=C(C1=NOCCN1)c1ccccc1Oc1ncnc(Oc2c(C)cccc2C)c1F [Example 19] | 3.29 |  | ≥ 90 | 
26 | CON=C(C1=NOCCN1)c1ccccc1Oc1ncnc(Oc2ccc(Cl)cc2)c1F [Example 6] | 3.23 |  | ≥ 90 | pest or weed control at 100 g/ha (Plasmopara viticola; read-out: Efficacy): 97%
27 | CCSCc1ccccc1Oc1ncnc(Oc2ccccc2C(=NOC)C2=NOCCN2)c1F [Example 60] | 3.4 |  |  | 
28 | CCc1ccccc1Oc1ncnc(Oc2ccccc2C(=NOC)C2=NOCCN2)c1F [Example 11] | 3.32 | ≥ 90 | ≥ 90 | 
29 | CON=C(C1=NOCCN1)c1ccccc1Oc1ncnc(Oc2ccc(C)cc2)c1F [Example 21] | 3.08 | ≥ 90 |  | 
30 | CON=C(C1=NOCCN1)c1ccccc1Oc1ncnc(Oc2ccc(OC(F)(F)C(F)Cl)cc2)c1F (stereo not shown) [Example 33] | 3.56 |  |  | 
31 | CON=C(C1=NOCCN1)c1ccccc1Oc1ncnc(Oc2ccccc2Br)c1F [Example 9] | 3.08 |  | ≥ 90 | 
32 | CON=C(C1=NOCCN1)c1ccccc1Oc1ncnc(Oc2cccc(C(F)(F)F)c2)c1F [Example 24] | 3.39 | ≥ 90 |  | 
33 | CON=C(C1=NOCCN1)c1ccccc1Oc1ncnc(Oc2ccccc2C2CCCC2)c1F [Example 17] | 4.01 | ≥ 90 | ≥ 90 | 
34 | CON=C(C1=NOCCN1)c1ccccc1Oc1ncnc(Oc2cccc(Cl)c2C)c1F [Example 2] | 3.52 | ≥ 90 | ≥ 90 | 
35 | CON=C(C1=NOCCN1)c1ccccc1Oc1ncnc(Sc2ccccc2)c1F [Example 48] |  | ≥ 90 | ≥ 90 | 
36 | CON=C(C1=NOCCN1)c1ccccc1Oc1ncnc(Oc2cccc(Cl)n2)c1F [Example 40] | 2.62 | ≥ 90 |  | 
37 | CON=C(C1=NOCCN1)c1ccccc1Oc1ncnc(Oc2ccccc2C(C)C)c1F [Example 13] | 3.59 | ≥ 90 | ≥ 90 | 
38 | CON=C(C1=NOCCN1)c1ccccc1Oc1ncnc(Oc2ccc(SC(F)(F)F)cc2)c1F [Example 32] | 3.84 |  |  | 
39 | CON=C(C1=NOCCN1)c1ccccc1Oc1ncnc(Sc2ccc(C)cc2)c1F [Example 51] | 3.45 |  | ≥ 90 | 
40 | CON=C(C1=NOCCN1)c1ccccc1Oc1ncnc(Oc2ccc(C)nc2)c1F [Example 35] | 1.58 |  |  | 

Row | SMILES | chromatographic logP [1] | pest or weed control at 10 g/ha (Venturia inaequalis; [2]) [%] | pest or weed control at 100 g/ha (Plasmopara viticola; [3]) [%] | also measured
41 | CON=C(C1=NOCCN1)c1ccccc1Oc1ncnc(Oc2ccccc2F)c1F [Example 10] | 2.85 | ≥ 90 | ≥ 90 | 
42 | CON=C(C1=NOCCN1)c1ccccc1Oc1ncnc(Oc2ccccc2OC)c1F [Example 14] | 2.7 |  | ≥ 90 | 
43 | CON=C(C)c1ccc(Oc2ncnc(Oc3ccccc3C(=NOC)C3=NOCCN3)c2F)c(C)c1 [Example 42] | 3.56 |  |  | 
44 | CON=C1C(=NOCCO)Oc2ccccc21 [benzofuran-2,3-dione 2-[O-(2-hydroxy-ethyl)-oxime] 3-(O-methyl-oxime)] | 1.65 |  |  | logP [1]: 1.79
45 | CON=C(C1=NOCCN1)c1ccccc1Oc1ncnc(Oc2ccc(Cl)cn2)c1F [Example 41] | 2.65 |  |  | 
46 | CCOCc1ccccc1Oc1ncnc(Oc2ccccc2C(=NOC)C2=NOCCN2)c1F [Example 62] | 3.04 |  |  | 
47 | CON=C(C1=NOCCN1)c1ccccc1Oc1ncnc(F)c1F [IV-1, 3-{1-[2-(4,5-difluoropyrimid-6-yloxy)-phenyl]-1-(methoximino)-methyl}-5,6-dihydro-4H-1,2,4-oxadiazine] | 1.97 |  |  | 
48 | C=Cc1ccccc1Oc1ncnc(Oc2ccccc2C(=NOC)C2=NOCCN2)c1F [Example 7] | 3.38 | ≥ 90 | ≥ 90 | 
49 | CON=C(C1=NOCCN1)c1ccccc1Oc1ncnc(Oc2ccc(C)cc2C)c1F [Example 15] | 3.38 |  | ≥ 90 | 
50 | CON=C(C1=NOCCN1)c1ccccc1Oc1ncnc(Oc2cccc(C)c2)c1F [Example 20] | 3.1 | ≥ 90 | ≥ 90 | 
51 | CCSc1ccccc1Oc1ncnc(Oc2ccccc2C(=NOC)C2=NOCCN2)c1F [Example 64] | 3.26 |  |  | 
52 | CON=C(C1=NOCCN1)c1ccccc1Oc1ncnc(SCc2ccccc2)c1F [Example 58] | 3.42 |  |  | 
53 | CON=C(C1=NOCCN1)c1ccccc1Oc1ncnc(Oc2cccnc2Br)c1F [Example 36] | 2.43 | ≥ 90 |  | 
54 | CON=C(C1=NOCCN1)c1ccccc1Oc1ncnc(Oc2ccccc2)c1F [Example 34] | 2.76 |  | ≥ 90 | 
55 | CON=C(C1=NOCCN1)c1ccccc1Oc1ncnc(Oc2cccc(Cl)c2Cl)c1F [Example 1, 3-{1-[2-(4-<2,3-dichlorophenoxy>-5-fluoropyrimid-6-yloxy)-phenyl]-1-(methoximino)-methyl}-5,6-dihydro-4H-1,2,4-oxadiazine] | 3.45 |  | ≥ 90 | 
56 | CON=C(C1=NOCCN1)c1ccccc1Oc1ncnc(Sc2ccc(Cl)cc2)c1F [Example 50] | 3.57 |  | ≥ 90 | 
57 | CON=C(C1=NOCCN1)c1ccccc1Oc1ncnc(Sc2ccc(Br)cc2)c1F [Example 49] | 3.69 |  |  | 
58 | CON=C(C1=NOCCN1)c1ccccc1Oc1ncnc(Oc2cc(C)ccc2Cl)c1F [Example 18] | 3.35 |  |  | 
59 | CON=C(C1=NOCCN1)c1ccccc1Oc1ncnc(Oc2cccc(C)c2C)c1F [Example 4] | 3.29 | ≥ 90 | ≥ 90 | pest or weed control at 10 g/ha (Venturia inaequalis; read-out: Efficacy): 95%
